25 molecules from patent US20250368647A1, “NITROGEN CONTAINING CONDENSED 2,3-DIHYDROQUINAZOLINONE COMPOUNDS AS NAV1.8 INHIBITORS” (GLAXOSMITHKLINE INTELLECTUAL PROPERTY DEVELOPMENT LIMITED, priority 2022, published 2025) can be followed below.

This assay concerns the target human Nav1.8 (Homo sapiens (Human), UniProt Q9Y5Y9). Kind of assay: QPatch 48 HTX voltage-clamp electrophysiology, half inactivation state (V1/2) protocol, HEK293-Nav1.8 cells. It is filed as cell-based. Conditions: HEK293 cells expressing human Nav1.8, human Navβ1 and human TREK1, P2 current; for IC50: read-out: Nav1.8, pIC50 (converted). In a few lines: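 HEK293 cells co-expressing Navβ1 and TREK1 were voltage-clamped from −100 mV: a 20 ms step to 0 mV, 8 s inactivation at −46 mV, 20 ms at −100 mV, then a 20 ms P2 test step to 0 mV, repeated every 15 s. P2 current was normalized to vehicle and full block, corrected for run-down, and Hill-fitted (4–6 concentrations) for IC50.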
Background: Patch clamp records ionic current or voltage across a cell membrane.

Chain of human Nav1.8 (Q9Y5Y9 whole entry): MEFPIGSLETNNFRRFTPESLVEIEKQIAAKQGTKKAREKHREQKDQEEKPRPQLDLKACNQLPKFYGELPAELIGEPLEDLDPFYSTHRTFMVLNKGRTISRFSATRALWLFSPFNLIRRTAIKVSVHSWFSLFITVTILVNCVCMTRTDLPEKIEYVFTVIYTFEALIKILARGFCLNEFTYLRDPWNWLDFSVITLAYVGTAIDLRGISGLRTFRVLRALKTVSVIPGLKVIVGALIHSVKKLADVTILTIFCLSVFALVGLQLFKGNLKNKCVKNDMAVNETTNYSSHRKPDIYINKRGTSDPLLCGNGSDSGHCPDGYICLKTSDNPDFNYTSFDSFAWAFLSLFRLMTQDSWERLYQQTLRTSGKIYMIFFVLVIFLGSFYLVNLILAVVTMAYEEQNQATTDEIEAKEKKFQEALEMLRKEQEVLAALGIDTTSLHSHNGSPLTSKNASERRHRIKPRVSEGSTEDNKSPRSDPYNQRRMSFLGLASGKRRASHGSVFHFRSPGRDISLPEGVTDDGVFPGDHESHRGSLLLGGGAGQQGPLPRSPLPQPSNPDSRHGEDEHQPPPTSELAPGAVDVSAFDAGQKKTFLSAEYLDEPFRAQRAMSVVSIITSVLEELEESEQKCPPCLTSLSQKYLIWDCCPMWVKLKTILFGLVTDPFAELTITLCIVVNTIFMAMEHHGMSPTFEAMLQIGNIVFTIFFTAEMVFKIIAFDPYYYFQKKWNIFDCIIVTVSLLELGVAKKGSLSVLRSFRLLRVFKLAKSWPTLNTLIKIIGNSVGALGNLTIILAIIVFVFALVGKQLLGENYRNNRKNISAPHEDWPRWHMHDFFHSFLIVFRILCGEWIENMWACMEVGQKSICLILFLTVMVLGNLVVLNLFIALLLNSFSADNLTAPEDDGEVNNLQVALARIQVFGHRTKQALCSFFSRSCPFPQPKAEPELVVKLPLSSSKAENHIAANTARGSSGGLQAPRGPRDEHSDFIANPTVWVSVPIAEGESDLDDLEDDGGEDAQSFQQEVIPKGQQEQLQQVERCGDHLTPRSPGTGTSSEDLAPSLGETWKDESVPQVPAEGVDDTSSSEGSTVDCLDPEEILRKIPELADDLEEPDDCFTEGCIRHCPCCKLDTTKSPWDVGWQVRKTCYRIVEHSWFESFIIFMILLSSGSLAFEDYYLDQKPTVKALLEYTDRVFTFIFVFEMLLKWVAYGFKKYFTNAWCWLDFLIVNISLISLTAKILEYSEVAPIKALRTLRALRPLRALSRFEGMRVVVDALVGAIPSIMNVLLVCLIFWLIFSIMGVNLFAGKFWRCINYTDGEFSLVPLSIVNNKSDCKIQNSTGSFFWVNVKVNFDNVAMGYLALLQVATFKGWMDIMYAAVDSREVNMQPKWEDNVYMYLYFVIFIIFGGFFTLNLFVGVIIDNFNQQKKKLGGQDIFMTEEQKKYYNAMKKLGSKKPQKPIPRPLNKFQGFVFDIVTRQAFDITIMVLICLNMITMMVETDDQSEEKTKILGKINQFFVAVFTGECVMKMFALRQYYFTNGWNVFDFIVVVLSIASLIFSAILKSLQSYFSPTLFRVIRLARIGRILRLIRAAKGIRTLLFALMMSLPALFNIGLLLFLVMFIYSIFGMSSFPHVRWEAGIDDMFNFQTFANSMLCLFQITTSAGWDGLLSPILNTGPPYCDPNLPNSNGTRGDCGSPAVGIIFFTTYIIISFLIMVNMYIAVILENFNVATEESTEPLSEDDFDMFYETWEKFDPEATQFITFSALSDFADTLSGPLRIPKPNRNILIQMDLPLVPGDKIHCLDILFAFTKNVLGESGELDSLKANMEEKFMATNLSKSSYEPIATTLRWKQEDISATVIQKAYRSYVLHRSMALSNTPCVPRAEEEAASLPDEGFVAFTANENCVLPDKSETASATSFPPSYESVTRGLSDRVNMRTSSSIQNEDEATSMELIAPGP
Chain of human Nav1.8 (Q07699 19-218 partner): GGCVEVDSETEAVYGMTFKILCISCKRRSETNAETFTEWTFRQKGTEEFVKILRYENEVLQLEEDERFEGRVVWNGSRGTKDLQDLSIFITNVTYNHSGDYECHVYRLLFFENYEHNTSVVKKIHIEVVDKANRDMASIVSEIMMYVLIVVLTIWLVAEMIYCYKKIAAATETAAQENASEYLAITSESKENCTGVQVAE

For the molecule `O=C1c2cc(C(F)(F)F)ccc2N2CN1c1ccc(=O)[nH]c1NCCCc1cc(F)ccc12` [Example 27, 8-Fluoro-2-(trifluoromethyl)-10,11,12,13-tetrahydro-19H-5,18-methanodibenzo[f,i]pyrido[2,3-b][1,4,8]triazocyclotridecine-15,19(14H)-dione], the “Nav1.8, pIC50” value is 7.8.

As for `O=C1c2cc(C(F)(F)F)cnc2N2CN1c1ccc(=O)[nH]c1CCCCc1cc(OC(F)(F)F)ccc12` [Example 17, 8-(Trifluoromethoxy)-2-(trifluoromethyl)-10,11,12,13-tetahydro-19H,19H-5,18-methano-dibenzo[l]pyrido[2,3-b:3′,2′-f][1,5]diazacyclotridecine-15,19(14H)-dione], the “Nav1.8, pIC50” value was 6.1.

`Cl.O=C1c2cc(F)c(Br)cc2N2CN1c1ccc(=O)[nH]c1CCNCc1cc(F)ccc12` [Example 63, 3-Bromo-2,8-difluoro-10,11,12,13-tetrahydro-19H-5,18-methanodibenzo[c,f]pyrido[3,2-j][1,5,9]triazacyclotridecine-15,19(14H)-dione hydrochloride]: the “Nav1.8, pIC50” value is reported as 8.

As for `O=C1c2cc(C(F)(F)F)ccc2N2CN1c1ccc(=O)[nH]c1NCCCCc1cc(F)ccc12` [Example 11, 3^4-Fluoro-2^6-(trifluoromethyl)-1^1,1^2,2^1,2^2,2^3,2^4-hexahydro-8-aza-2(3,1)-quinazolina-1(5,6)-pyridina-3(1,2)-benzenacyclooctaphane-1^2,2^4-dione], the “Nav1.8, pIC50” value came out at 7.3.

Take `O=C1c2cc(C(F)(F)F)ccc2N2CN1c1ccc(=O)[nH]c1C/C=C\Cc1cc(F)ccc12` [Example 3, 8-Fluoro-2-(trifluoromethyl)-10,13-dihydro-19H-5,18-methanodibenzo[b,l]pyrido[3,2-f][1,5]diazacyclotridecine-15,19(14H)-dione]: the “Nav1.8, pIC50” value is given as 6.4.

For `Cl.N#Cc1cc2c(cc1Cl)C(=O)N1CN2c2ccc(F)c(F)c2CNCCc2[nH]c(=O)ccc21` [Example 72, 2-Chloro-8,9-difluoro-15,19-dioxo-10,11,12,13,14,15-hexahydro-19H-5,18-methanodibenzo-[c,f]pyrido[3,2-j][1,5,9]triazacyclotridecine-3-carbonitrile hydrochloride], the “Nav1.8, pIC50” value is 7.5.

Regarding `O=C1c2ccc(C(F)(F)F)cc2N2CN1c1ccc(=O)[nH]c1CCCCOc1cc(F)ccc12` [Example 18, 3^4-Fluoro-2^7-(trifluoromethyl)-1^1,1^2,2^1,2^2,2^3,2^4-hexahydro-4-oxa-2(3,1)-quinazolina-1(5,6)-pyridina-3(1,2)-benzenacyclooctaphane-1^2,2^4-dione], the “Nav1.8, pIC50” value is recorded as 6.5.

For the molecule `Cl.N#Cc1cc2c(cc1F)C(=O)N1CN2c2ccc(OC(F)(F)F)c(F)c2CNCCc2[nH]c(=O)ccc21` [Example 89, 2,9-Difluoro-15,19-dioxo-8-(trifluoromethoxy)-10,11,12,13,14,15-hexahydro-19H-5,18-methanodibenzo[c,f]pyrido[3,2-j][1,5,9]triazacyclotridecine-3-carbonitrile hydrochloride], the “Nav1.8, pIC50” value worked out at 8.1.

For `Cl.N#Cc1cc2c(cc1F)C(=O)N1CN2c2ccc(F)c(Cl)c2CNCCCc2[nH]c(=O)ccc21` [Example 110, 3^3-Chloro-2^6,3^4-difluoro-1^2,2^4-dioxo-1^1,1^2,2^1,2^2,2^3 2^4-hexahydro-5-aza-2(3,1)-quinazolina-1(5,6)-pyridina-3(1,2)-benzenacyclooctaphane-2^7-carbonitrile hydrochloride], the “Nav1.8, pIC50” value was 6.8.

In the case of `COc1c(F)ccc2c1CNCCc1[nH]c(=O)ccc1N1CN2c2cc(F)c(F)cc2C1=O.O=CO` [Example 70, 2,3,8-Trifluoro-9-methoxy-10,11,12,13-tetrahydro-19H-5,18-methanodibenzo-[c,f]pyrido[3,2-j][1,5,9]triazacyclotridecine-15,19(14H)-dione, Formic acid salt], the “Nav1.8, pIC50” value was 6.1.

Regarding `Cl.N#Cc1c(F)ccc2c1CNCCc1[nH]c(=O)ccc1N1CN2c2cc(C(F)(F)F)c(F)cc2C1=O` [Example 82, 2,8-Difluoro-15,19-dioxo-3-(trifluoromethyl)-10,11,12,13,14,15-hexahydro-19H-5,18-methanodibenzo[c,f]pyrido[3,2-j][1,5,9]triazacyclotridecine-9-carbonitrile hydrochloride], the “Nav1.8, pIC50” value is recorded as 7.9.

As to `O=C1c2cc(C(F)(F)F)ccc2N2CN1c1ccc(=O)[nH]c1/C=C/Cc1cc(F)ccc12` [Example 1, (E)-8-Fluoro-2-(trifluoromethyl)-13-hydro-10H, 18H,-5,17-methanodibenzo[b,k]pyrido[3,2-f][1,5]diazacyclododecine-14,18-dione], the “Nav1.8, pIC50” value is recorded as 5.1.

Regarding `CN1CCCc2[nH]c(=O)ccc2N2CN(c3cc(F)c(F)cc3C2=O)c2ccc(F)c(Cl)c2C1.Cl` [Example 113, 3^3-Chloro-2^6,2^7,3^4-trifluoro-5-methyl-1^1,1^2,2^1,2^2,2^3,2^4-hexahydro-5-aza-2(3,1)-quinazolina-1(5,6)-pyridina-3(1,2)-benzenacyclooctaphane-1^2,2^4-dione hydrochloride], the “Nav1.8, pIC50” value was determined as 6.9.

Take `Cl.O=C1c2cc(F)c(C(F)(F)F)cc2N2CN1c1ccc(=O)[nH]c1CCNCc1cc(Cl)ccc12` [Example 66, 8-Chloro-2-fluoro-3-(trifluoromethyl)-10,11,12,13-tetrahydro-19H-5,18-methanodibenzo[c,f]pyrido[3,2-j][1,5,9]triazacyclotridecine-15,19(14H)-dione hydrochloride]: the “Nav1.8, pIC50” value stood at 8.2.

With `C[C@H]1CCNc2[nH]c(=O)ccc2N2CN(c3cc(C(F)(F)F)c(F)cc3C2=O)c2ccc(F)c(F)c21` [Example 132, (10S)-2,8,9-trifluoro-10-methyl-3-(trifluoromethyl)-10,11,12,13-tetrahydro-19H-5,18-methanodibenzo[f,i]pyrido[2,3-b][1,4,8]triazacyclotridecine-15,19(14H)-dione], the IC50 is 6.31 nM.

`O=C1c2cc(Cl)cnc2N2CN1c1ccc(=O)[nH]c1CCCCCc1cc(F)ccc12` [Example 20, 2^6-Chloro-3^4-fluoro-1^1,1^2,2^1,2^2,2^3,2^4-hexahydro-2(3,1)-pyrido[2,3-d]pyrimidina-1(5,6)-pyridina-3(1,2)-benzenacyclooctaphane-1^2,2^4-dione]: the “Nav1.8, pIC50” value amounted to 7.2.

`Cl.O=C1c2cc(F)c(F)cc2N2CN1c1ccc(=O)[nH]c1CCNCc1cc(Cl)ccc12` [Example 76, 8-Chloro-2,3-difluoro-10,11,12,13-tetrahydro-19H-5,18-methanodibenzo[c,f]pyrido[3,2-j][1,5,9]triazacyclotridecine-15,19(14H)-dione hydrochloride]: the “Nav1.8, pIC50” value was found to be 7.2.

With `CC1Cc2[nH]c(=O)ccc2N2CN(c3ccc(F)cc3CN1)c1cc(C(F)(F)F)c(F)cc1C2=O` (single isomer, unassigned; isomer 1) [Example 124, 2,8-difluoro-12-methyl-3-(trifluoromethyl)-10,11,12,13-tetrahydro-19H-5,18-methanodibenzo[c,f]pyrido[3,2-j][1,5,9]triazacyclotridecine-15,19(14H)-dione, Isomer 1], the IC50 was 1580 nM.

Consider `O=C1c2cc(Cl)cnc2N2CN1c1ccc(=O)[nH]c1CCNCc1cc(F)ccc12` [Example 42, 2-Chloro-8-fluoro-10,11,12,13-tetrahydro-19H-5,18-methanodibenzo[c]dipyrido[2,3-f:3′,2′-j][1,5,9]triazacyclotridecine-15,19(14H)-dione], for which the “Nav1.8, pIC50” value was determined as 6.9.

On to `O=C1c2cc(C(F)(F)F)ncc2N2CN1c1ccc(=O)[nH]c1NCCCc1cc(F)ccc12` [Example 35, 8-Fluoro-2-(trifluoromethyl)-10,11,12,13-tetrahydro-19H-5,18-methanodibenzo[i]dipyrido[2,3,-b:4′,3′-f][1,4,8]triazacyclotridecine-15,19(14H)-dione], for which the “Nav1.8, pIC50” value is recorded as 6.9.

Take `C[C@@H]1CCNc2[nH]c(=O)ccc2N2CN(c3cc(C(F)(F)F)c(F)cc3C2=O)c2ccc(F)c(F)c21` [Example 133, (10R)-2,8,9-trifluoro-10-methyl-3-(trifluoromethyl)-10,11,12,13-tetrahydro-19H-5,18-methanodibenzo[f,i]pyrido[2,3-b][1,4,8]triazacyclotridecine-15,19(14H)-dione]: the IC50 is 39.8 nM.

In the case of `O=C1c2cc(C(F)(F)F)ncc2N2CN1c1ccc(=O)[nH]c1CCCCCc1cc(F)ccc12` [Example 21, 3^4-Fluoro-2^6-(trifluoromethyl)-1^1,1^2,2^1,2^2,2^3,2^4-hexahydro-2(3,1)-pyrido[3,4-d]pyrimidina-1(5,6)-pyridina-3(1,2)-benzenacyclooctaphane-1^2,2^4-dione], the “Nav1.8, pIC50” value is given as 7.6.

Take `C[C@H]1NCCCc2[nH]c(=O)ccc2N2CN(c3cc(C(F)(F)F)c(F)cc3C2=O)c2ccc(F)cc21` [Example 136, (4R)-2^6,3^4-Difluoro-4-methyl-2^7-(trifluoromethyl)-1^1,1^2,2^1,2^2,2^3,2^4-hexahydro-5-aza-2(3,1)-quinazolina-1(5,6)-pyridina-3(1,2)-benzenacyclooctaphane-1^2,2^4-dione]: the “Nav1.8, pIC50” value was 6.9.

Take `O=C1c2cc(C(F)(F)F)ccc2N2CN1c1ccc(=O)[nH]c1NCCCc1c2ccc(F)c1F` [Example 37, 8,9-Difluoro-2-(trifluoromethyl)-10,11,12,13-tetrahydro-19H-5,18-methanodibenzo[f,i]dipyrido[2,3,-b][1,4,8]triazacyclotridecine-15,19(14H)-dione]: the “Nav1.8, pIC50” value came to 7.7.

As for `O=C1c2cnc(C(F)(F)F)cc2N2CN1c1ccc(=O)[nH]c1NCCCc1cc(F)ccc12` [Example 36, 8-Fluoro-3-(trifluoromethyl)-10,11,12,13-tetrahydro-19H-5,18-methanodibenzo[i]dipyrido[2,3,-b:3′,4′-f][1,4,8]triazacyclotridecine-15,19(14H)-dione], the “Nav1.8, pIC50” value is given as 6.6.
